Where two headings read alike, the source gives them in different places.
Key:
[1] = tested on: osteoclast differentiation; test: Inhibitory effects on osteoclast differentiation (bone marrow cell/osteoblast co-culture, TRAP staining); assay type: cell-based, mice; settings: for inhibition at 1 µM: Mus musculus, Osteoclast, 168 h, read-out: Inhibition of osteoclast differentiation (%)
Method: The effect of the benzamidine derivative of the present invention on osteoclast formation and differentiation process was evaluated via co-culture with an osteoblast.
Tibia was aseptically ectomized from 6 to 8-week-old male ddY mice to harvest bone marrow cells by using a syringe (21G, Korea Green Cross). The bone marrow cells were suspended in 5 mL of an α-MEM medium (Gibco BRL Co., supplemented with sodium bicarbonate (2.0 g/L), streptomycin (100 mg/L) and penicillin ([…]), filtered and then sterilized). The harvested cells were centrifuged at 600×g for 5 minutes to collect the whole quantity. To remove the red blood cells in the bone marrow cells, 3 mL of Tris HCl (0.83% NH4Cl, pH 7.5) was added and well mixed. After centrifugation, the numbers of the eukaryotic cells in the harvested bone marrow cells were counted, and then immediately used for a co-culture system.
The progenitor bone and the parietal bone were aseptically ectomized from 1 to 2-day-old neonatal ICR mice, washed with a phosphate butter solution (PBS), and treated with a mixed enzyme solution (0.2% collagenase and 0.1% dispase) six to seven times (10, 10, 10, 20, 20 and 20 min), and then 3 to 6 groups of the cells, in which a large volume of cells having osteoblastic characteristics were contained, were intensively collected, and washed with medium (serum-free α-MEM). The washed cells were cultured in the α-MEM medium containing 10% FBS for 2 to 3 days. After sub-culturing, the collected cells were used for this experiment, and diluted to a concentration of 1×10^6 cells/mL for storage at −70° C.
The benzamidine derivative of the present invention was dissolved in a sterile distilled water or ethanol to be diluted to a desired concentration. The final volume of the sample added to the cell culture medium was set at a ratio of 1:1000.
The bone marrow cells prepared in the above 1-1 and the osteoblast were co-cultured. Both the bone marrow cells (25,000 cells/cm^2) and the osteoblast (10,000 cells/cm^2) were plated in a 96-well plate using α-MEM medium containing FBS, and then cultured with the samples to be tested for 7 days. Differentiation factors, such as dexamethasone (10^−7 M) and vitamin D (10^−8 M), were also co-added to the medium from the first day of cultivation. The medium was changed with a fresh media containing a mixture of the samples and the differentiation factors every 2 to 3 days.
TRAP was used as a marker to measure the matured osteoclast in consideration of its characteristics showing a positive reaction to a TRAP staining solution.
The TRAP staining solution was prepared in such the manner that 5 mg of naphthol AS-MS phosphate (sigma N-4875) as a substrate and 25 mg of a coloring agent (Fast Red Violet LB salt) were dissolved in N,N-dimethylformamide (about 0.5 mL). 50 ml of a 0.1 N […] buffer solution containing 50 mM tartaric acid (pH 5.0) was added thereto, and the mixture was stored in a refrigerator prior to use as a staining solution.
After culturing the cells for 7 days, the medium was removed from the wells, the cells were once washed with PBS, and then fixed with PBS containing 10% formalin for 2 to 5 min. The cells were fixed again in a mixed solution of ethanol and acetone (1/1) for about 1 min, and dried off. The cells were further treated by the TRAP staining solution for 15 minutes, and washed with water and dried off. The osteoclasts with 3 or more nuclei showing a TRAP-positive reaction were counted under a microscopic examination. Each of tests was confirmed at least three times. The inhibitory effect on osteoclast differentiation of each experimental group, relative to negative controls, was expressed as a percentage (%).

MC3T3-E1 = test: Cytotoxicity test (MTT), MC3T3-E1; assay type: cell-based; settings: 10^−6 M, cultured for 72 hrs, in comparison with the control group
Method: (§1) The cytotoxic effect of the benzamidine derivative of the present invention was evaluated by carrying out the experiment described below.
(§2) The test substance was diluted in an appropriate solvent at a concentration of 10^−2 M. This substance was diluted in an appropriate culture medium for the cells used in the cytotoxicity test to a concentration of 10^−6M, and loaded into a 96-well plate in 100 μl per well. The cell lines to be used in the cytotoxicity test were plated on a 96-well plate in a dose of 1.0×10^4 cell/100 μl per well, and cultured for 72 hrs. 25 μl of MTT[3-(4,5-dimethyl-2-thiazolyl)-2,5-diphenyl-2H-tetrazolium bromide] dissolved in PBS (2 mg/mL) were added before 4 hrs of the end of culture. After completion of the reaction, the plates were centrifuged, the medium was discarded and 100 μl of DMSO was added to dissolve formazan. Finally, the absorbance of the developed plates was measured at 540 nm. The survival rates of the cells were expressed as % concentration values in comparison with the control group.

calvaria = test: Cytotoxicity test (MTT), calvaria; assay type: cell-based; settings: 10^−6 M, cultured for 72 hrs, in comparison with the control group
Method: as §1, §2

HOS = test: Cytotoxicity test (MTT), HOS; assay type: cell-based; settings: 10^−6 M, cultured for 72 hrs, in comparison with the control group
Method: as §1, §2

[2] = 1 μm, 7 days co-culture, TRAP-positive osteoclasts with 3 or more nuclei, relative to negative controls

## CNc1nc(-c2ccc(OCCCCCOc3ccc(C(=N)NO)cc3)cc2)c(N2CCOCC2)s1 [Example 23, N-hydroxy-4-{5-[4-(2-methylamino-5-morpholin-4-yl-thiazol-4-yl)-phenoxy]-pentyloxy}-benzamidine]
[1]; [2]
  inhibition at 1 µM: 58.9%
MC3T3-E1
  Cell survival rate: 92.0%
calvaria
  Cell survival rate: 95.8%
HOS
  Cell survival rate: 104.0%

## N=C(NO)c1ccc(OCCCCCOc2ccc(-c3nc(N)sc3N3CCOCC3)cc2)cc1 [Example 3, N-hydroxy-4-{5-[4-(2-amino-5-morpholin-4-yl-thiazol-4-yl)-phenoxy]-pentyloxy}-benzamidine]
[1]; [2]
  inhibition at 1 µM: 73.2%
MC3T3-E1
  Cell survival rate: 94.6%
calvaria
  Cell survival rate: 97.7%
HOS
  Cell survival rate: 89.0%

## CC(C)NCc1sc(N(C)CCN2CCOCC2)nc1-c1ccc(OCCCCCOc2ccc(C(=N)NO)cc2)cc1 [Example 32, N-hydroxy-4-[5-(4-{5-(isopropylamino-methyl)-2-[methyl-(2-morpholin-4-yl-ethyl)-amino]-thiazol-4-yl}-phenoxy)-pentyloxy]-benzamidine]
[1]; [2]
  inhibition at 1 µM: 100%
MC3T3-E1
  Cell survival rate: 104%
calvaria
  Cell survival rate: 98%
HOS
  Cell survival rate: 106%

## Cc1nc(-c2ccc(OCCCCCOc3ccc(C(=N)NO)cc3)cc2)c(N(C)C)s1 [Example 41]
[1]; [2]
  Inhibition of osteoclast differentiation (%): 94%
MC3T3-E1
  Cell survival rate: 91%
calvaria
  Cell survival rate: 93%
HOS
  Cell survival rate: 107%

## Cc1nc(-c2ccc(OCCCCCOc3ccc(C(=N)NO)cc3)cc2)c(CN2CCN(C)CC2)s1 [Example 9, N-hydroxy-4-(5-{4-[2-methyl-5-(4-methyl-piperazin-1-ylmethyl)-thiazol-4-yl]-phenoxy}-pentyloxy)-benzamidine]
[1]
  inhibition at 1 µM: 96.4%
MC3T3-E1
  Cell survival rate: 98.8%
calvaria
  Cell survival rate: 92.3%
HOS
  Cell survival rate: 95%

## Cc1nc(-c2ccc(OCCCCCOc3ccc(C(=N)NO)cc3)cc2)c(N2CCN(C)CC2)s1 [Example 2, N-hydroxy-4-(5-{4-[2-methyl-5-(4-methyl-piperazin-1-yl)-thiazol-4-yl]-phenoxy}-pentyloxy)-benzamidine]
[1]; [2]
  inhibition at 1 µM: 78.6%
MC3T3-E1
  Cell survival rate: 91.8%
calvaria
  Cell survival rate: 87.9%
HOS
  Cell survival rate: 107.0%

## Cc1nc(-c2ccc(OCCCCCOc3ccc(C(=N)NO)cc3)cc2)c(CN2CCCC2)s1 [Example 19, N-hydroxy-4-{5-[4-(2-methyl-5-pyrrolidin-1-ylmethyl-thiazol-4-yl)-phenoxy]-pentyloxy}-benzamidine]
[1]; [2]
  inhibition at 1 µM: 100%
MC3T3-E1
  Cell survival rate: 103%
calvaria
  Cell survival rate: 97%
HOS
  Cell survival rate: 90%

## Cc1nc(-c2ccc(OCCCCCOc3ccc(C(=N)NO)cc3)cc2)c(CN(C)C)s1 [Example 12, N-hydroxy-4-{5-[4-(5-dimethylaminomethyl-2-methyl-thiazol-4-yl)-phenoxy]-pentyloxy}-benzamidine]
[1]
  inhibition at 1 µM: 64.9%
MC3T3-E1
  Cell survival rate: 98.8%
calvaria
  Cell survival rate: 95.6%
HOS
  Cell survival rate: 107.5%

Reference: US20100249402A1, “NOVEL BENZAMIDINE DERIVATIVES, PROCESS FOR THE PREPARATION THEREOF AND PHARMACEUTICAL COMPOSITION FOR PREVENTING OR TREATING OSTEPOROSIS COMPRISING THE SAME” (DONG WHA PHARMACEUTICAL CO. LTD., priority 2007, published 2010)
